Laboratory results from article PMC9325410 (Clinical Pharmacology and Therapeutics, 2022).
Where two headings read alike, the source gives them in different places.

How the values were obtained:
Renal clearance = type: in vivo, human
OATP1B1/1B3 [1] = type: in vivo, human
OATP1B1/1B3 [2] = conditions: ref 17 (pitavastatin), 19 (CP-I); cited from earlier work
OATP1B1/1B3 [3] = conditions: cited from earlier work
[4] = after 20 mg and 75 mg CysA doses
[5] = otherwise (conditions other than rosuvastatin with 1-hour interval)
[6] = +CysA 20 mg, 1 h before probe cocktail

Row | Compound | change of CLR by CysA (in words) (Renal clearance; [5]) | AUCR: AUC0-24 Geometric mean ratio +CysA/Control (90% CI) (OATP1B1/1B3 [1]; [6]) | AUCR: AUC0-24 Geometric mean ratio +CysA/Control (90% CI) (OATP1B1/1B3 [1]; +CysA 75 mg (-1hr)) | AUCR: AUC0-24 Geometric mean ratio +CysA/Control (90% CI) (OATP1B1/1B3 [1]; +CysA 75 mg (-3hr)) | hepatic extraction (PBPK model analysis) (OATP1B1/1B3 [2]) | further results
1 | CC(C)c1nc(N(C)S(C)(=O)=O)nc(-c2ccc(F)cc2)c1/C=C/[C@@H](O)C[C@@H](O)CC(=O)O [rosuvastatin] | no significant change | 1.39 | 2.16 | 1.81 | – | change of CLR by CysA (in words) (Renal clearance; CysA administered with a 1-hour interval): decreased
2 | CC1=C(CCC(=O)O)c2cc3nc(cc4[nH]c(cc5[nH]c(cc1n2)c(C)c5CCC(=O)O)c(CCC(=O)O)c4C)C(CCC(=O)O)=C3C.Cl.Cl [CP-III, Coproporphyrin III dihydrochloride] | – | – | – | – | – | reduction of CLR by CysA (Renal clearance; CysA 75 mg): 24%
3 | CCCCC(=O)N(Cc1ccc(-c2ccccc2-c2nnn[nH]2)cc1)[C@H](C(=O)O)C(C)C [valsartan] | no significant change | 1.43 | 1.77 | 1.85 | – | –
4 | O=C(O)C[C@H](O)C[C@H](O)/C=C/c1c(C2CC2)nc2ccccc2c1-c1ccc(F)cc1 [pitavastatin] | – | 1.64 | 3.46 | 2.38 | 0.43 | –
5 | CC[C@@H]1NC(=O)[C@H]([C@H](O)[C@H](C)C/C=C/CO)N(C)C(=O)[C@H](C(C)C)N(C)C(=O)[C@H](CC(C)C)N(C)C(=O)[C@H](CC(C)C)N(C)C(=O)[C@@H](C)NC(=O)[C@H](C)NC(=O)[C@H](CC(C)C)N(C)C(=O)[C@H](C(C)C)NC(=O)[C@H](CC(C)C)N(C)C(=O)CN(C)C1=O [AM1, Cyclosporin AM1] | – | – | – | – | – | inhibition of OATP1B1/1B3 (in words) (OATP1B1/1B3 [3]): inhibitor; Plasma concentrations relative to CysA (times lower) [4]: 10 times
6 | coproporphyrin I [CP-I] | – | – | – | – | 0.28 | –
